In patent publication US11673898B2, “Substituted inhibitors of menin-MLL and methods of use” (Kura Oncology, Inc., priority 2016, dated 2023) one finds IC50 data, which are given here for 21 molecules.

As a reminder, the IC50 is the concentration that inhibits the measured activity by half.

Where only a bound is given, the exact number is not on record here.

In the assay the target is T1, Menin MLL 4-43 (Homo sapiens, UniProt O00255).
T1 sequence (O00255 1-610): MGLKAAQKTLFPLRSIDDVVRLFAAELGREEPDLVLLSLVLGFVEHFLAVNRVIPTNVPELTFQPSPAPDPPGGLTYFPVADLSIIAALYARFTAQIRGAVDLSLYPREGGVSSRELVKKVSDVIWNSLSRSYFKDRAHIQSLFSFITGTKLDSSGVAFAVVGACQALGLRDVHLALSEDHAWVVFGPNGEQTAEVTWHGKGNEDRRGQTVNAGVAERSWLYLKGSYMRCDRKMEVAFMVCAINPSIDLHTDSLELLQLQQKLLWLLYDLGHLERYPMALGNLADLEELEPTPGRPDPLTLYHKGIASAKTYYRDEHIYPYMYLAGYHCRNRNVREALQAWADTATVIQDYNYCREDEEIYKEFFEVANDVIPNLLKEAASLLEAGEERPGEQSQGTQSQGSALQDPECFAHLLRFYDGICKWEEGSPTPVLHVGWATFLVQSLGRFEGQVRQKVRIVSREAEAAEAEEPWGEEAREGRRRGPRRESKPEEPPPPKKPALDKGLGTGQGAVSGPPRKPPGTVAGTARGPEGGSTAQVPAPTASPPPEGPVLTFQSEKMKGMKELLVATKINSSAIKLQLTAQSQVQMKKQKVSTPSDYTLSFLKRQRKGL
The assay can be described thus: Fluorescence polarization (FP) competition assay of the menin-MLL interaction. The format is binding. Conditions: fluorescence polarization assay; read-out: Menin MLL 4-43 IC50. In general terms: Fluorescence polarisation rises when a labelled molecule tumbles more slowly, as on binding a larger partner.
Consider `Cc1c(CN2CCC(Nc3ncnc4sc(CC(F)(F)F)cc34)CC2)ccc2c1cc(C#N)n2C[C@H](C)N1CCN(C=O)CC1` [Compound 65], for which the IC50 was < 50 nM.

With `CNS(=O)(=O)N1CCN([C@H](C)Cn2c(C#N)cc3c(C)c(CN4CCC(Nc5ncnc6sc(CC(F)(F)F)cc56)CC4)ccc32)CC1` [Compound 66], the concentration for half-maximal inhibition (IC50) is 20 to 1000 nM.

Turning to `Cc1c(CN2CCC(Nc3ncnc4sc(CC(F)(F)F)cc34)CC2)ccc2c1cc(C#N)n2C[C@@H](C)N1CCN(C=O)CC1` [Compound 67], the IC50 is 20 to 1000 nM.

On to `CNC(=O)N1CCN([C@@H](C)Cn2c(C#N)cc3c(C)c(CN4CCC(Nc5ncnc6sc(CC(F)(F)F)cc56)CC4)ccc32)CC1` [Compound 68], for which the IC50 fell in the range of 50 to 250 nM.

Turning to `Cc1c(CN2CCC(Nc3ncnc4sc(CC(F)(F)F)cc34)CC2)ccc2c1cc(C#N)n2C[C@H](C)N1CCN(S(=O)(=O)CCF)CC1` [Compound 69], the IC50 fell in the range of 50 to 250 nM.

Take `Cc1c(CN2CCC(Nc3ncnc4sc(CC(F)(F)F)cc34)CC2)ccc2c1cc(C#N)n2C[C@H](C)N1CCN(S(=O)(=O)CF)CC1` [Compound 70]: the IC50 lay within 50 to 250 nM.

For the molecule `Cc1c(CN2CCC(Nc3ncnc4sc(CC(F)(F)F)cc34)CC2)ccc2c1cc(C#N)n2C[C@@H](C)N1CCN(S(=O)(=O)CF)CC1` [Compound 71], the half-maximal inhibitory concentration (IC50) is > 1000 nM.

Consider `COC(=O)N1CCN([C@@H](C)Cn2c(C#N)cc3c(C)c(CN4CCC(Nc5ncnc6sc(CC(F)(F)F)cc56)CC4)ccc32)CC1` [Compound 72], for which the IC50 lay in the range of 50 to 250 nM.

Take `Cc1c(CN2CCC(Nc3ncnc4sc(CC(F)(F)F)cc34)CC2)ccc2c1cc(C#N)n2C[C@H](C)N1CCN(S(=O)(=O)NC2CC2)CC1` [Compound 73]: the IC50 was < 50 nM.

Turning to `[2H]C([2H])(C(C)N1CCN(S(C)(=O)=O)CC1)n1c(C#N)cc2c(C)c(CN3CCC(Nc4ncnc5sc(CC(F)(F)F)cc45)CC3)ccc21` (stereo not drawn) [Compound 74], the IC50 fell in the range of 50 to 250 nM.

Regarding `Cc1c(CN2CCC(Nc3ncnc4sc(CC(F)(F)F)cc34)CC2)ccc2c1cc(C#N)n2CC(C)N1CCN(S(C)(=O)=O)C(C(=O)O)C1` (stereo not drawn) [Compound 82], the IC50 was 20 to 1000 nM.

Turning to `CNC(=O)C1CCN(C(C)Cn2c(C#N)cc3c(C)c(CN4CCC(Nc5ncnc6sc(CC(F)(F)F)cc56)CC4)ccc32)CC1` (stereo not drawn) [Compound 84], the IC50 is 50 to 250 nM.

Consider `Cc1c(CN2CCC(Nc3ncnc4sc(CC(F)(F)F)cc34)CC2)ccc2c1cc(C#N)n2C[C@H](C)N1CCN(S(=O)(=O)CCO)CC1` [Compound 85], for which the IC50 was < 50 nM.

With `Cc1c(CN2CCC(Nc3ncnc4sc(CC(F)(F)F)cc34)CC2)ccc2c1cc(C#N)n2CC(C)N1CCN(S(=O)(=O)N(C)C)CC1` (stereo not drawn) [Compound 87], the IC50 fell in the range of 50 to 250 nM.

For the molecule `Cc1c(CN2CCC(Nc3ncnc4sc(CC(F)(F)F)cc34)CC2)ccc2c1cc(C#N)n2CC(C)N1CCN(S(=O)(=O)NCCN)CC1` (stereo not drawn) [Compound 88], the IC50 was < 50 nM.

For `Cc1c(CN2CCC(Nc3ncnc4sc(CC(F)(F)F)cc34)CC2)ccc2c1cc(C#N)n2C[C@H](C)N1CCN(S(=O)(=O)N(C)C)CC1` [Compound 89], the IC50 was < 50 nM.

Take `Cc1c(CN2CCC(Nc3ncnc4sc(CC(F)(F)F)cc34)CC2)ccc2c1cc(C#N)n2CC(C)N1CCC(S(C)(=O)=O)CC1` (stereo not drawn) [Compound 90]: the IC50 is < 50 nM.

Turning to `Cc1c(CN2CCC(Nc3ncnc4sc(CC(F)(F)F)cc34)CC2)ccc2c1cc(C#N)n2C[C@@H](C)N1C[C@@H](C)N(S(C)(=O)=O)[C@H](C)C1` [Compound 91], the IC50 was in the range of 50 to 250 nM.

Consider `Cc1c(CN2CCC(Nc3ncnc4sc(CC(F)(F)F)cc34)CC2)ccc2c1cc(C#N)n2C[C@H](C)N1C[C@@H](C)C(S(C)(=O)=O)[C@H](C)C1` [Compound 92], for which the IC50 is < 50 nM.

On to `C=CC(=O)Nc1ccc(C(C)Cn2c(C#N)cc3c(C)c(CN4CCC(Nc5ncnc6sc(CC(F)(F)F)cc56)CC4)ccc32)cn1` (stereo not drawn) [Compound 93], for which the IC50 is < 50 nM.

Regarding `Cc1c(CN2CCC(Nc3ncnc4sc(CC(F)(F)F)cc34)CC2)ccc2c1cc(C#N)n2CC(C)N1C2CCC1CN(S(C)(=O)=O)C2` (stereo not drawn) [Compound 94], the IC50 was 50 to 250 nM.
